SMILES strings stand for the structures. Values joined by “and” are separate entries in the source; they are usually repeats but may differ in a detail not shown here. Identical values can stand only once. Inconclusive results and toxic doses are left out.

The subject of this test is P388 leukemia ip, CD2F1 mice, survival T/C. In words: NCI In Vivo Anticancer Drug Screen. Data for tumor model P388 Leukemia (intraperitoneal) in CD2F1 (CDF1) mice. The following applies: endpoint: median survival time, higher = longer survival. Put shortly:
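Mice carrying the transplanted tumor received test compound or vehicle. Survival was recorded in each group, and the value is the treated-group measurement divided by that of the vehicle-treated control group.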

[1] abbreviates: dose: 100.0 mg/kg/injection, schedule: Q04DX002 (ip), vehicle: saline with Tween-80.
The mark [2] stands for this setting: dose: 200.0 mg/kg/injection, schedule: Q04DX002 (ip), vehicle: saline with Tween-80.
Setting [3] is: dose: 50.0 mg/kg/injection, schedule: Q01DX005 (ip), vehicle: saline with Tween-80.
Setting [4] is: dose: 100.0 mg/kg/injection, schedule: Q01DX001 (ip), vehicle: saline with Tween-80.
Where [5] appears, read: dose: 200.0 mg/kg/injection, schedule: Q01DX001 (ip), vehicle: saline with Tween-80.
The mark [6] stands for this setting: dose: 50.0 mg/kg/injection, schedule: Q01DX009 (ip), vehicle: saline with Tween-80.
[7] abbreviates: dose: 100.0 mg/kg/injection, schedule: Q01DX009 (ip), vehicle: saline with Tween-80.
Setting [8] is: dose: 200.0 mg/kg/injection, schedule: Q01DX009 (ip), vehicle: saline with Tween-80.
Where [9] appears, read: dose: 25.0 mg/kg/injection, schedule: Q01DX005 (ip), vehicle: Klucel (hydroxypropylcellulose) (HPC).
Where [10] appears, read: dose: 50.0 mg/kg/injection, schedule: Q01DX005 (ip), vehicle: Klucel (hydroxypropylcellulose) (HPC).
Setting [11] is: dose: 100.0 mg/kg/injection, schedule: Q01DX005 (ip), vehicle: Klucel (hydroxypropylcellulose) (HPC).
The mark [12] stands for this setting: dose: 200.0 mg/kg/injection, schedule: Q01DX005 (ip), vehicle: Klucel (hydroxypropylcellulose) (HPC).
Setting [13] is: dose: 25.0 mg/kg/injection, schedule: Q01DX009 (ip), vehicle: saline with Tween-80.
[14] abbreviates: dose: 200.0 mg/kg/injection, schedule: Q01DX005 (ip), vehicle: saline with Tween-80.

For the compound `COC(=O)C(Cc1ccc(N(CCCl)CCCl)cc1)N=NNc1nc[nH]c1C(N)=O` (stereo not given), the T/C was 163 % of control (dose: 12.5 mg/kg/injection, schedule: Q04DX003 (ip), vehicle: saline with Tween-80); 168 % of control (dose: 25.0 mg/kg/injection, schedule: Q04DX003 (ip), vehicle: saline with Tween-80); 172 % of control (dose: 33.0 mg/kg/injection, schedule: Q04DX003 (ip), vehicle: saline with Tween-80); 181 % of control and 213 % of control (dose: 50.0 mg/kg/injection, schedule: Q04DX003 (ip), vehicle: saline with Tween-80); 231 % of control (dose: 75.0 mg/kg/injection, schedule: Q04DX003 (ip), vehicle: saline with Tween-80).
`CC1CCN(C(=O)c2cc(Nc3ccnc4cc(Cl)ccc34)ccc2O)CC1`: the T/C by setting is: under setting [1], 99 % of control; under setting [2], 99 % of control; (dose: 400.0 mg/kg/injection, schedule: Q04DX002 (ip), vehicle: saline with Tween-80) 89 % of control.
Take `C1CN2CCN3CCCN(CCN(C1)C2)C3`: the T/C reads like this: (dose: 12.5 mg/kg/injection, schedule: Q01DX005 (ip), vehicle: saline) 102 % of control; (dose: 25.0 mg/kg/injection, schedule: Q01DX005 (ip), vehicle: saline) 107 % of control; under setting [3], 101 % of control.
On to `COC(=O)CCCCCCCCCCN(CCCl)CCCl`, for which the T/C was 160 % of control and 169 % of control (dose: 6.25 mg/kg/injection, schedule: Q01DX009 (ip), vehicle: saline); 89 % of control (dose: 12.5 mg/kg/injection, schedule: Q01DX009 (ip), vehicle: saline).
`COc1ccc(C(=O)NC(c2ccccc2)c2cccs2)cc1` (stereo not given): the T/C is, setting by setting: (dose: 100.0 mg/kg/injection, schedule: Q01DX001 (ip), vehicle: Klucel (hydroxypropylcellulose) (HPC)) 113 % of control; (dose: 200.0 mg/kg/injection, schedule: Q01DX001 (ip), vehicle: Klucel (hydroxypropylcellulose) (HPC)) 104 % of control; (dose: 400.0 mg/kg/injection, schedule: Q01DX001 (ip), vehicle: Klucel (hydroxypropylcellulose) (HPC)) 109 % of control.
For the compound `CC(=O)Oc1c(C)c(OC(C)=O)c2c(c1C(C)=O)OC1CC(=O)C(C(C)=O)=C(O)C21C` (stereo not given), the T/C runs as follows: (dose: 6.25 mg/kg/injection, schedule: Q01DX009 (ip), vehicle: gum acacia) 101 % of control and 97 % of control; (dose: 12.5 mg/kg/injection, schedule: Q01DX009 (ip), vehicle: gum acacia) 100 % of control and 102 % of control; (dose: 25.0 mg/kg/injection, schedule: Q01DX009 (ip), vehicle: gum acacia) 102 % of control; (dose: 50.0 mg/kg/injection, schedule: Q01DX009 (ip), vehicle: gum acacia) 101 % of control and 104 % of control; (dose: 100.0 mg/kg/injection, schedule: Q01DX009 (ip), vehicle: gum acacia) 94 % of control.
Regarding `COc1cc(C=Nc2cccc3c2NCCC3)cc(OC)c1OC`, the T/C is 105 % of control under setting [4]; 98 % of control under setting [5]; 98 % of control (dose: 400.0 mg/kg/injection, schedule: Q01DX001 (ip), vehicle: saline with Tween-80).
In the case of `CC(C)N(CC#CCO)CCO`, the T/C runs as follows: (dose: 60.0 mg/kg/injection, schedule: Q01DX005 (ip), vehicle: saline) 99 % of control; (dose: 120.0 mg/kg/injection, schedule: Q01DX005 (ip), vehicle: saline) 100 % of control; (dose: 240.0 mg/kg/injection, schedule: Q01DX005 (ip), vehicle: saline) 99 % of control.
Regarding `CCN(CC)C(=O)c1c(Cl)c(Cl)c(Cl)c(Cl)c1C(=O)O`, the T/C under setting [6] is 112 % of control; the T/C under setting [7] was 96 % of control; the T/C under setting [8] is 96 % of control; the T/C (dose: 400.0 mg/kg/injection, schedule: Q01DX009 (ip), vehicle: saline with Tween-80) was 102 % of control.
For the compound `COC(=O)c1ccccc1NC(C)=NC(C)(C)C`, the T/C reads like this: under setting [6], 103 % of control; under setting [7], 90 % of control; under setting [8], 90 % of control.
With `C=CSS/C(=C/N(C=O)Cc1cnc(C)nc1N)CCO`, the T/C reads like this: under setting [9], 108 % of control; under setting [10], 108 % of control; under setting [11], 102 % of control; under setting [12], 117 % of control.
Take `CCOC(=O)c1c2c(c[nH]c1=O)CCCC2`: the T/C was 106 % of control under setting [4] and 97 % of control under setting [5].
As to `CCOC1(C)C=CC(=NC(C)(C)C)C=C1` (stereo not given), the T/C runs as follows: under setting [13], 97 % of control; under setting [6], 101 % of control; under setting [7], 101 % of control.
On to `C/C=C(\C(=O)O)S(=O)(=O)O.[Pb]`, for which the T/C was 100 % of control under setting [13] and 90 % of control under setting [6].
For `O=C1c2ccccc2-c2nc3cncnc3nc21` (tested in a mixture with another compound), the T/C is 109 % of control (dose: 50.0 mg/kg/injection, schedule: Q04DX003 (ip), vehicle: saline); 109 % of control (dose: 100.0 mg/kg/injection, schedule: Q04DX003 (ip), vehicle: saline); 104 % of control (dose: 200.0 mg/kg/injection, schedule: Q04DX003 (ip), vehicle: saline).
As to `Cc1nn(C)c(Cl)c1C(=O)Nc1ccccc1`, the T/C under setting [3] is 96 % of control; the T/C (dose: 60.0 mg/kg/injection, schedule: Q01DX005 (ip), vehicle: saline with Tween-80) is 98 % of control; the T/C (dose: 100.0 mg/kg/injection, schedule: Q01DX005 (ip), vehicle: saline with Tween-80) is 96 % of control; the T/C under setting [14] is 90 % of control; the T/C (dose: 240.0 mg/kg/injection, schedule: Q01DX005 (ip), vehicle: saline with Tween-80) was 92 % of control.
For the compound `Cc1nnc(NN=O)nc1C`, the T/C (dose: 3.12 mg/kg/injection, schedule: Q01DX009 (ip), vehicle: water) was 96 % of control; the T/C (dose: 6.25 mg/kg/injection, schedule: Q01DX009 (ip), vehicle: water) is 100 % of control; the T/C (dose: 12.5 mg/kg/injection, schedule: Q01DX009 (ip), vehicle: water) was 105 % of control and 98 % of control; the T/C (dose: 25.0 mg/kg/injection, schedule: Q01DX009 (ip), vehicle: water) was 104 % of control and 106 % of control; the T/C (dose: 50.0 mg/kg/injection, schedule: Q01DX009 (ip), vehicle: water) was 99 % of control and 101 % of control and 105 % of control; the T/C (dose: 100.0 mg/kg/injection, schedule: Q01DX009 (ip), vehicle: water) is 96 % of control.
Consider `CN(C)c1ccc2c(Nc3ccc(NS(C)(=O)=O)cc3)c3ccc(N(C)C)cc3nc2c1`, for which the T/C under setting [9] is 161 % of control; the T/C under setting [10] is 153 % of control and 155 % of control; the T/C under setting [11] was 172 % of control and 212 % of control; the T/C under setting [12] is 173 % of control and 216 % of control.
`Cc1cc(C)n(C2=NC3(c4ccc(Cl)cc4)NC(=O)NC3(c3ccc(Cl)cc3)N2)n1` (stereo not given): the T/C was 96 % of control (dose: 50.0 mg/kg/injection, schedule: Q04DX002 (ip), vehicle: saline with Tween-80); 97 % of control under setting [1]; 93 % of control under setting [2].
For `CC(C)C(N)C(=O)O` (stereo not given), the T/C (dose: 50.0 mg/kg/injection, schedule: Q01DX009 (ip), vehicle: Klucel (hydroxypropylcellulose) (HPC)) was 100 % of control; the T/C (dose: 100.0 mg/kg/injection, schedule: Q01DX009 (ip), vehicle: Klucel (hydroxypropylcellulose) (HPC)) is 100 % of control; the T/C (dose: 200.0 mg/kg/injection, schedule: Q01DX009 (ip), vehicle: Klucel (hydroxypropylcellulose) (HPC)) is 91 % of control.
`[CH3][Sb]([CH3])([CH3])([CH3])[I]`: the T/C (dose: 50.0 mg/kg/injection, schedule: Q01DX009 (ip), vehicle: saline) is 98 % of control; the T/C (dose: 100.0 mg/kg/injection, schedule: Q01DX009 (ip), vehicle: saline) was 100 % of control; the T/C (dose: 200.0 mg/kg/injection, schedule: Q01DX009 (ip), vehicle: saline) was 95 % of control.
Take `Clc1ccccc1N1CCN(CCCN2CCN(c3ccccc3Cl)CC2)CC1`: the T/C is, setting by setting: under setting [13], 97 % of control; under setting [6], 94 % of control; under setting [7], 100 % of control.
As to `O=C(Nc1ccc2oc3ccc(Cl)cc3c(=O)c2c1)c1ccc(Cl)cc1Cl`, the T/C is, setting by setting: under setting [10], 97 % of control; under setting [11], 96 % of control; under setting [12], 96 % of control.
For the compound `CCOc1ccc(C(C)c2cc3c(cc2OCC)OCO3)cc1` (stereo not given), the T/C runs as follows: (dose: 25.0 mg/kg/injection, schedule: Q01DX005 (ip), vehicle: saline with Tween-80) 120 % of control; under setting [14], 157 % of control.

The values are drawn from PubChem BioAssay AID330 (DTP/NCI, 2004).
